What follows are compounds tested against Recombinant human HSD17B13 (Homo sapiens (Human), UniProt Q7Z5P4) (assay: HSD17B13 rapid-fire mass spectrometry assay (RF/MS assay)). Details: inhibition of HSD17B13; LTB4 10 μM, NAD+ 0.5 mM, RT 3 h; IC50 ranges A-E.
Format: biochemical
In short: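 Product 12-oxo-LTB4 and substrate LTB4 quantified by RapidFire triple-quad MS in negative mode, giving percent conversion. Reaction: 80 nM recombinant hHSD17B13, 10 μM LTB4, 0.5 mM NAD+, compound up to 100 μM, pH 7.5, RT, 3 h. Variable-slope fit gave IC50; run in duplicate.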

Sequence of Recombinant human HSD17B13 (Q7Z5P4 20-300): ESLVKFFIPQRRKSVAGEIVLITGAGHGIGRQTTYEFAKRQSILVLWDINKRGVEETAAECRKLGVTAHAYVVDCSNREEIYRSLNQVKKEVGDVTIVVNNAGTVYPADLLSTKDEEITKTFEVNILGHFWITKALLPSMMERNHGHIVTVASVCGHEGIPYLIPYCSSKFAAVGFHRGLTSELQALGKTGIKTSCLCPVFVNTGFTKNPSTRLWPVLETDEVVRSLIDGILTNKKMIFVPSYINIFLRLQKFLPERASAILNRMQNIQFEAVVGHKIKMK

SMILES	IC50 [nM]
COc1cc(C(=O)O)ccc1NS(=O)(=O)c1ccc(-c2cnc(-c3ccccc3)s2)c(F)c1 [Example 337]	100 to 500
COc1cc(C(=O)O)ccc1NS(=O)(=O)N1Cc2ccc(-c3ccc(F)cc3)cc2C1 [Example 338]	100 to 500
COc1cc(C(=O)O)ccc1NS(=O)(=O)c1ccc(-c2ccc3c(c2)C(C)(C)CCC3(C)C)cc1F [Example 339]	500 to 1000
COc1cc(C(=O)O)ccc1NS(=O)(=O)c1ccc(-c2ccc(C3CCCCC3)cc2)cn1 [Example 340]	1000 to 100000
COc1cc(C(=O)O)ccc1NS(=O)(=O)c1ccc(C2=CCN(c3ccccc3)CC2)cc1F [Example 341]	500 to 1000
COc1cc(C(=O)O)ccc1NS(=O)(=O)N1Cc2ccc(C#CC3CCCC3)cc2C1 [Example 342]	500 to 1000
COc1cc(C(=O)O)ccc1NS(=O)(=O)c1ccc(C2=CCC(c3ccccc3)CC2)cc1F (centres unmarked) [Example 343, 4-((3-fluoro-2′,3′,4′,5′-tetrahydro-[1,1′:4′,1″-terphenyl])-4-sulfonamido)-3-methoxybenzoic acid]	< 100
COc1cc(C(=O)O)ccc1NS(=O)(=O)N1Cc2nc(-c3ccc(C4CCCCC4)cc3)sc2C1 [Example 344]	500 to 1000
COc1cc(C(=O)O)ccc1NS(=O)(=O)N1Cc2nc(C#CC3CCCC3)sc2C1 [Example 345]	100 to 500
COc1cc(C(=O)O)ccc1NS(=O)(=O)c1ccc(-c2ccc(C3CCCCC3)cc2)nc1 [Example 346]	1000 to 100000
COc1cc(C(=O)O)ccc1NS(=O)(=O)c1csc(N2CCN(C(=O)OC(C)C)CC2)n1 [Example 347]	1000 to 100000
COc1cc(C(=O)O)ccc1NS(=O)(=O)c1csc(-c2ccc(C3CCC(C(F)(F)F)CC3)cc2)n1 (centres unmarked) [Example 348]	< 100
COc1cc(C(=O)O)ccc1NS(=O)(=O)c1csc(-c2ccc(C3=CCCCC3)cc2)n1 [Example 349]	< 100
CCC[C@H]1CC[C@H](c2ccc(-c3nc(S(=O)(=O)Nc4ccc(C(=O)O)cc4OC)cs3)cc2)CC1 [Example 350]	< 100
COc1cc(C(=O)O)ccc1NS(=O)(=O)c1csc(-c2ccc(C3CCC3)cc2)n1 [Example 351]	< 100
CC[C@H]1CC[C@H](c2ccc(-c3nc(S(=O)(=O)Nc4ccc(C(=O)O)cc4OC)cs3)cc2)CC1 [Example 352]	< 100
COc1cc(C(=O)O)ccc1NS(=O)(=O)c1csc(-c2ccc(C3CCC(C(C)(C)C)CC3)cc2)n1 (centres unmarked) [Example 353, 4-((2-(4-(4-(tert-butyl)cyclohexyl)phenyl)thiazole)-4-sulfonamido)-3-methoxybenzoic acid]	< 100
COc1cc(C(=O)O)ccc1NS(=O)(=O)c1csc(C2=CCC(c3ccccc3)CC2)n1 (centres unmarked) [Example 354]	< 100
COc1cc(C(=O)O)ccc1NS(=O)(=O)c1ccc(-c2cnn(C3CCCCC3)c2)cc1F [Example 355]	100 to 500
COc1cc(C(=O)O)ccc1NS(=O)(=O)c1ccc(C2=CCC3(CC2)OCCO3)cc1F [Example 356]	100 to 500
COc1cc(C(=O)O)ccc1NS(=O)(=O)c1ccc(C2CCC(c3ccccc3)CC2)cc1F (centres unmarked) [Example 357]	100 to 500
COc1cc(C(=O)O)ccc1NS(=O)(=O)N1Cc2nc(C3=CCC(F)(F)CC3)sc2C1 [Example 358]	100 to 500
COc1cc(C(=O)O)ccc1NS(=O)(=O)N1Cc2nc(C3=CCC(c4ccccc4)CC3)sc2C1 (centres unmarked) [Example 359, 3-methoxy-4-((2-(1,2,3,6-tetrahydro-[1,1′-biphenyl]-4-yl)-5,6-dihydro-4H-pyrrolo[3,4-d]thiazole)-5-sulfonamido)benzoic acid]	< 100
COc1cc(C(=O)O)ccc1NS(=O)(=O)N1Cc2cccc(-c3ccc(C4CCCCC4)cc3)c2C1 [Example 360]	1000 to 100000

SMILES	IC50 [nM]
COc1cc(C(=O)O)ccc1NS(=O)(=O)c1ccc(-c2ccc(C3CCCCC3)cc2)cc1 [Example 361]	1000 to 100000
COc1cc(C(=O)O)ccc1NS(=O)(=O)N1Cc2nc(C3=CCC(C(C)(C)C)CC3)sc2C1 (centres unmarked) [Example 362]	100 to 500
COc1cc(C(=O)O)ccc1NS(=O)(=O)N1Cc2ccc(-c3ccc(C4CCCCC4)cc3)cc2C1 [Example 364]	500 to 1000
COc1cc(C(=O)O)ccc1NS(=O)(=O)c1csc(-c2cccc(C3CCCCC3)c2)n1 [Example 366]	100 to 500
COc1cc(C(=O)O)ccc1NS(=O)(=O)c1csc(-c2ccc(C3CCC(OC(F)(F)F)CC3)cc2)n1 (centres unmarked) [Example 367]	< 100
COc1cc(C(=O)O)ccc1NS(=O)(=O)c1csc(-c2ccc(C3CCCC(C)(C)C3)cc2)n1 (centres unmarked) [Example 368]	100 to 500
COc1cc(C(=O)O)ccc1NS(=O)(=O)c1csc(-c2ccc(C3CCOCC3)cc2)n1 [Example 370]	500 to 1000
COc1cc(C(=O)O)ccc1NS(=O)(=O)c1csc(-c2ccc(C3CCC(F)(F)CC3)cc2)n1 [Example 371]	100 to 500
COc1cc(C(=O)O)c(F)cc1NS(=O)(=O)c1csc(-c2ccc(C3CCC(C)(C)CC3)cc2)n1 [Example 372]	< 100
CCC[C@H]1CC[C@H](C2CC=C(c3nc(S(=O)(=O)Nc4ccc(C(=O)O)cc4OC)cs3)CC2)CC1 (some centres unmarked) [Example 373]	100 to 500
COc1cc(C(=O)O)ccc1NS(=O)(=O)c1ccc(-c2ccc(C3CCCCC3)cc2)s1 [Example 374]	100 to 500
COc1cc(C(=O)O)ccc1NS(=O)(=O)c1coc(-c2ccccc2)n1 [Example 375]	< 100
COc1cc(C(=O)O)ccc1NS(=O)(=O)N1Cc2nc(C3CCC(c4ccccc4)CC3)sc2C1 (centres unmarked) [Example 376, 3-methoxy-4-((2-(4-phenylcyclohexyl)-5,6-dihydro-4H-pyrrolo[3,4-d]thiazole)-5-sulfonamido)benzoic acid]	< 100
CCC[C@H]1CC[C@H](C2CC=C(c3ccc4c(c3)CN(S(=O)(=O)Nc3ccc(C(=O)O)cc3OC)C4)CC2)CC1 (stereo partly drawn) [Example 377, 3-methoxy-4-((5-((1S,1′s,4′S)-4′-propyl-[1,1′-bi(cyclohexan)]-3-en-4-yl)isoindoline)-2-sulfonamido)benzoic acid]	1000 to 100000
COc1cc(C(=O)O)ccc1NS(=O)(=O)c1ccc(-c2cnc(-c3ccc(C4CCCCC4)cc3)s2)cc1 [Example 378, 4-((4-(2-(4-cyclohexylphenyl)thiazol-5-yl)phenyl)sulfonamido)-3-methoxybenzoic acid]	1000 to 100000
CCC[C@H]1CC[C@H](C2CC=C(c3nc(S(=O)(=O)Nc4ccc(C(=O)O)cc4OC)cs3)CC2)CC1 (some centres unmarked) [Example 379]	100 to 500
COc1cc(C(=O)O)ccc1NS(=O)(=O)c1csc(-c2ccc(C3CCC(OC)CC3)cc2)n1 (centres unmarked) [Example 380]	100 to 500
CCC[C@H]1CC[C@H](C2CCC(c3nc(S(=O)(=O)Nc4ccc(C(=O)O)cc4OC)cs3)CC2)CC1 (some centres unmarked) [Example 381]	100 to 500
COc1cc(C(=O)O)ccc1NS(=O)(=O)c1csc(-c2ccc(-c3ccc4c(c3)OCCO4)cc2)n1 [Example 382]	< 100
COc1cc(C(=O)O)ccc1NS(=O)(=O)c1csc(-c2ccc(-c3ccc(-c4ccc5c(c4)OCCO5)cc3)cc2)n1 [Example 383]	< 100
COc1cc(C(=O)O)ccc1NS(=O)(=O)N1Cc2nc(-c3ccc4c(c3)OCCO4)sc2C1 [Example 384]	100 to 500
COc1cc(C(=O)O)ccc1NS(=O)(=O)c1cnc(-c2ccc(C3CCCCC3)cc2)s1 [Example 385]	< 100
COc1cc(C(=O)O)ccc1NS(=O)(=O)N1Cc2nc(-c3ccc4c(c3)CCCC4)sc2C1 [Example 386]	100 to 500
